From article PMC10879502, “Linking ATP and allosteric sites to achieve superadditive binding with bivalent EGFR kinase inhibitors” (Communications Chemistry, 2024)
Where “and” joins values, the source holds several entries; their conditions need not be identical. Equal values may be shown once. Read-outs that look alike come from different tables or passages of the source. One block for each compound: values may come before it.

Columns and labels:
[1] = target: T1, EGFR L858R/T790M (LRTM) kinase domain (Homo sapiens, UniProt P00533, L858R/T790M); assay: HTRF KinEASE-TK kinase activity assay; format: biochemical; conditions: for Linking coefficient E: LRTM IC50, upper limit; for activity: LRTM, read-out: percent inhibition
T1 construct: The EGFR kinase domain (residues 696–1022) was cloned into pTriEx; 6xHis (N, cleaved yes); GST (N, cleaved yes); made in house; host or cells: SF9 insect cells, baculovirus

[2] = target: T2, ABL1(F317L)-phosphorylated (Homo sapiens, UniProt P00519, F317L); assay: KINOMEscan; format: binding; conditions: 1 μM
T2 construct: purchased Eurofins DiscoverX Corporation

ACVR1 = target: T3, ACVR1 (Homo sapiens, UniProt Q04771); assay: KINOMEscan; format: binding; conditions: 1 μM
T3 construct: purchased Eurofins DiscoverX Corporation

ACVRL1 = ACVRL1 (Homo sapiens, UniProt P37023); assay: KINOMEscan; format: binding; conditions: 1 μM
BRSK1 = target: T4, BRSK1 (Homo sapiens, UniProt Q8TDC3); assay: KINOMEscan; format: binding; conditions: 1 μM
T4 construct: purchased Eurofins DiscoverX Corporation (KINOMEscan)

CAMK1B = target: T5, CAMK1B (Homo sapiens, UniProt Q6P2M8); assay: KINOMEscan; format: binding; conditions: 1 μM
T5 construct: purchased Eurofins DiscoverX Corporation (KINOMEscan)

EGFR(L861Q) = EGFR(L861Q) (Homo sapiens, UniProt P00533, L861Q); assay: KINOMEscan; format: binding; conditions: 1 μM
EPHA7 = EPHA7 (Homo sapiens, UniProt Q15375); assay: KINOMEscan; format: binding; conditions: 1 μM
ERK4 = ERK4 (Homo sapiens, UniProt P31152); assay: KINOMEscan; format: binding; conditions: 1 μM
Chain of ERK4 (P31152 whole entry): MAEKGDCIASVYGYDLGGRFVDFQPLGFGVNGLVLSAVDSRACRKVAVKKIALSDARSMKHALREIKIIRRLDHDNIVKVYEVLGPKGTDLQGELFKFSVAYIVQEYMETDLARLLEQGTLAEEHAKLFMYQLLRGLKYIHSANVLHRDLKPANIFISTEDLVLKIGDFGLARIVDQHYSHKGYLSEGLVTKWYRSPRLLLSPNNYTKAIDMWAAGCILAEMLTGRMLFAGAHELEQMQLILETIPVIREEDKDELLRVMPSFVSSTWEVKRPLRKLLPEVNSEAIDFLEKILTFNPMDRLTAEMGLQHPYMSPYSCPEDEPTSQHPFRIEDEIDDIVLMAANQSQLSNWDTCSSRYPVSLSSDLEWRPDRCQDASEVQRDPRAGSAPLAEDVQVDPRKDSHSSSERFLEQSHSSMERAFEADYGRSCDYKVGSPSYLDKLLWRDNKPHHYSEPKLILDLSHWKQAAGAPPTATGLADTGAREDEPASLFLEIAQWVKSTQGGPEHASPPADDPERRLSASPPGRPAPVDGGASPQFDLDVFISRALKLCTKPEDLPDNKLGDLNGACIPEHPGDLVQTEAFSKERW

FGFR3 = FGFR3 (Homo sapiens, UniProt P22607); assay: KINOMEscan; format: binding; conditions: 1 μM
FRK = target: T6, FRK (Homo sapiens, UniProt P42685); assay: KINOMEscan; format: binding; conditions: 1 μM
T6 construct: purchased Eurofins DiscoverX Corporation
T6 sequence (P42685 whole entry): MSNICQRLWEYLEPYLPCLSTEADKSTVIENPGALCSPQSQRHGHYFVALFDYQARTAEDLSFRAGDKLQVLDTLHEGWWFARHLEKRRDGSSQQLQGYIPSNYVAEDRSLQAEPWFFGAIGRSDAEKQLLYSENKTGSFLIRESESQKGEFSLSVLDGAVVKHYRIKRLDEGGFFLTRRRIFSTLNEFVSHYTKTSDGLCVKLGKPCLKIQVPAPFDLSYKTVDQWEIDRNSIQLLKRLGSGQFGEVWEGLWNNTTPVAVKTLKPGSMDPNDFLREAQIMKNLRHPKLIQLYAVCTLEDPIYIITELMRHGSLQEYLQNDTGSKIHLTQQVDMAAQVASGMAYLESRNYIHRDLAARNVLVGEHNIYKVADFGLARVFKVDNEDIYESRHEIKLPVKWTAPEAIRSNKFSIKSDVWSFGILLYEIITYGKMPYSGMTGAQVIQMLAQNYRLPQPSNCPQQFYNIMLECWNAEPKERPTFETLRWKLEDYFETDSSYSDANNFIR

HPK1 = target: T7, HPK1 (Homo sapiens, UniProt Q92918); assay: KINOMEscan; format: binding; conditions: 1 μM
T7 construct: purchased Eurofins DiscoverX (KINOMEscan)

JNK1 = target: T8, JNK1 (Homo sapiens, UniProt P45983); assay: KINOMEscan; format: binding; conditions: 1 μM
T8 construct: purchased Eurofins DiscoverX (KINOMEscan)

KIT-autoinhibited = target: T9, KIT-autoinhibited (Homo sapiens, UniProt P10721); assay: KINOMEscan; format: binding; conditions: 1 μM
T9 construct: purchased Eurofins DiscoverX Corporation

LKB1 = target: T10, LKB1 (Homo sapiens, UniProt Q15831); assay: KINOMEscan; format: binding; conditions: 1 μM
T10 construct: purchased Eurofins DiscoverX Corporation
T10 sequence (Q15831 whole entry): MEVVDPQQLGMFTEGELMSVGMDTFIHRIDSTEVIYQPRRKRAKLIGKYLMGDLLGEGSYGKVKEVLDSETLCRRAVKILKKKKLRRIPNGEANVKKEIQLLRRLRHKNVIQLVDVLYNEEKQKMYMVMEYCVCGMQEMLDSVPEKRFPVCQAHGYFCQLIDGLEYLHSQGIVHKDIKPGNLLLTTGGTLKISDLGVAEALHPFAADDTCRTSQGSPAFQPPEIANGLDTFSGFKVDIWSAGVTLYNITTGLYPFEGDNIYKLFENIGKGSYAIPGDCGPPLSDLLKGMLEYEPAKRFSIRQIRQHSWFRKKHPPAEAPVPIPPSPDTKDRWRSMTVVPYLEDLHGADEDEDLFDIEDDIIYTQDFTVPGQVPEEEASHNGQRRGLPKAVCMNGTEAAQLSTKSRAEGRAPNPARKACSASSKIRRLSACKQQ

MAP3K15 = target: T11, MAP3K15 (Homo sapiens, UniProt Q6ZN16); assay: KINOMEscan; format: binding; conditions: 1 μM
T11 construct: purchased Eurofins DiscoverX Corporation

MERTK = target: T12, MERTK (Homo sapiens, UniProt Q12866); assay: KINOMEscan; format: binding; conditions: 1 μM
T12 construct: purchased Eurofins DiscoverX Corporation

MLCK = target: T13, MLCK (Homo sapiens, UniProt Q32MK0); assay: KINOMEscan; format: binding; conditions: 1 μM
T13 construct: purchased Eurofins DiscoverX Corporation
T13 sequence (Q32MK0 whole entry): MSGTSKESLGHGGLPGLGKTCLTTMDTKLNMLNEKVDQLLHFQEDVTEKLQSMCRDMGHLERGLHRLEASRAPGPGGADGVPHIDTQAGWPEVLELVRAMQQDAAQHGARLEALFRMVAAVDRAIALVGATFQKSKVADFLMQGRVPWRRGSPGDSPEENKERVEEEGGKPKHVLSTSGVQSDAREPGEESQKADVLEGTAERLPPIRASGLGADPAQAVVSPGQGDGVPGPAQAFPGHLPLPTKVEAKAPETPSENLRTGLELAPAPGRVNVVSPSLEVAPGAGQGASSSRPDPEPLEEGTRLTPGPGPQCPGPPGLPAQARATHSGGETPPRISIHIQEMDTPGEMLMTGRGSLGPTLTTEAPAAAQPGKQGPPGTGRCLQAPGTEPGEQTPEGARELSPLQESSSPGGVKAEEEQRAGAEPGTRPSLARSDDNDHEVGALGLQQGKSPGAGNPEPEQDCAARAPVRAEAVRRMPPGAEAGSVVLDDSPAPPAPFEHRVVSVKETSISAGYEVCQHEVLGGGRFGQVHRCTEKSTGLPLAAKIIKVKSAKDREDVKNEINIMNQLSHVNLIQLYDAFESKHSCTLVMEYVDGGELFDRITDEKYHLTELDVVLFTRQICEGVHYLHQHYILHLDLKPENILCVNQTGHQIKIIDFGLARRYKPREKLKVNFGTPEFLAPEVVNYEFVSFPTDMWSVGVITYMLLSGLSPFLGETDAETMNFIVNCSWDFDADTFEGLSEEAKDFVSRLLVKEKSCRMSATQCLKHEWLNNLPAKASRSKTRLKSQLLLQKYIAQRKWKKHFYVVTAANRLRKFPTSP

MLK1 = target: T14, MLK1 (Homo sapiens, UniProt P80192); assay: KINOMEscan; format: binding; conditions: 1 μM
T14 construct: purchased Eurofins DiscoverX Corporation

MLK3 = target: T15, MLK3 (Homo sapiens, UniProt Q16584); assay: KINOMEscan; format: binding; conditions: 1 μM
T15 construct: purchased Eurofins DiscoverX Corporation

MRCKB = target: T16, MRCKB (Homo sapiens, UniProt Q9Y5S2); assay: KINOMEscan; format: binding; conditions: 1 μM
T16 construct: purchased Eurofins DiscoverX Corporation

NEK6 = NEK6 (Homo sapiens, UniProt Q9HC98); assay: KINOMEscan; format: binding; conditions: 1 μM
p38-delta = p38-delta (Homo sapiens, UniProt O15264); assay: KINOMEscan; format: binding; conditions: 1 μM
PIK3C2G = PIK3C2G (Homo sapiens, UniProt O75747); assay: KINOMEscan; format: binding; conditions: 1 μM
PIKFYVE = PIKFYVE (Homo sapiens, UniProt Q9Y2I7); assay: KINOMEscan; format: binding; conditions: 1 μM
PRKD1 = PRKD1 (Homo sapiens, UniProt Q15139); assay: KINOMEscan; format: binding; conditions: 1 μM
[3] = target: RPS6KA5(Kin.Dom.2-C-terminal) (Homo sapiens, UniProt O75582); assay: KINOMEscan; format: binding; conditions: 1 μM
[4] = target: RSK2(Kin.Dom.2-C-terminal) (Homo sapiens, UniProt P51812); assay: KINOMEscan; format: binding; conditions: 1 μM
SGK2 = SGK2 (Homo sapiens, UniProt Q9HBY8); assay: KINOMEscan; format: binding; conditions: 1 μM
SNRK = SNRK (Homo sapiens, UniProt Q9NRH2); assay: KINOMEscan; format: binding; conditions: 1 μM
SRC = SRC (Homo sapiens, UniProt P12931); assay: KINOMEscan; format: binding; conditions: 1 μM
Chain of SRC (P12931 whole entry): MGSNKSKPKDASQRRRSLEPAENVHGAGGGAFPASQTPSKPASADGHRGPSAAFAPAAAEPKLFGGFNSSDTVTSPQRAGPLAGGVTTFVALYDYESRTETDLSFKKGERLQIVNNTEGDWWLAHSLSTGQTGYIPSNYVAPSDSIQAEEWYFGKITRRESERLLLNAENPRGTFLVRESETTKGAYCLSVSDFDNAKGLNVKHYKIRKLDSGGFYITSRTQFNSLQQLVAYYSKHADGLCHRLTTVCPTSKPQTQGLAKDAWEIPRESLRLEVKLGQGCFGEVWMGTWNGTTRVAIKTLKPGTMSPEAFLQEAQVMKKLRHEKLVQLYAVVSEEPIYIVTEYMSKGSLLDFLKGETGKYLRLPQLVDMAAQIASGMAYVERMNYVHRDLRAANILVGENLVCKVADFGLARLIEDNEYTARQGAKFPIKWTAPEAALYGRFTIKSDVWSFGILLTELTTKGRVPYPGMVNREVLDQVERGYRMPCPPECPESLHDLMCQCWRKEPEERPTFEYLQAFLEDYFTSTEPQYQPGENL

SYK = target: T17, SYK (Homo sapiens, UniProt P43405); assay: KINOMEscan; format: binding; conditions: 1 μM
T17 construct: purchased Eurofins DiscoverX Corporation

TAOK1 = target: T18, TAOK1 (Homo sapiens, UniProt Q7L7X3); assay: KINOMEscan; format: binding; conditions: 1 μM
T18 construct: purchased Eurofins DiscoverX Corporation

TGFBR1 = target: T19, TGFBR1 (Homo sapiens, UniProt P36897); assay: KINOMEscan; format: binding; conditions: 1 μM
T19 construct: purchased Eurofins DiscoverX Corporation
T19 sequence (P36897 34-503): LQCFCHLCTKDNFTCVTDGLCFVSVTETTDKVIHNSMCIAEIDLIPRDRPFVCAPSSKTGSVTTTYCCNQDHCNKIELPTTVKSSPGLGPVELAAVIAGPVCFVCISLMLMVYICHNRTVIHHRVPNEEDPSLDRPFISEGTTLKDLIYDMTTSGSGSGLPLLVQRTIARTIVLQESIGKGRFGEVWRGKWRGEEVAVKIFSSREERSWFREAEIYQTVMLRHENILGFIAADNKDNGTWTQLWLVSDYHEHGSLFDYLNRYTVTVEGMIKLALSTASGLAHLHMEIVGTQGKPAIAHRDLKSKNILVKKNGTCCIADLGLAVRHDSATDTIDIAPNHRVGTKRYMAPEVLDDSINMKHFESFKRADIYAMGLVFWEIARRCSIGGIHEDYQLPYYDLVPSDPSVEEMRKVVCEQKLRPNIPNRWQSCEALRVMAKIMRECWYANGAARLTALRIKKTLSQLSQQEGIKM

TNNI3K = target: T20, TNNI3K (Homo sapiens, UniProt Q59H18); assay: KINOMEscan; format: binding; conditions: 1 μM
T20 construct: purchased Eurofins DiscoverX Corporation
T20 sequence (Q59H18 whole entry): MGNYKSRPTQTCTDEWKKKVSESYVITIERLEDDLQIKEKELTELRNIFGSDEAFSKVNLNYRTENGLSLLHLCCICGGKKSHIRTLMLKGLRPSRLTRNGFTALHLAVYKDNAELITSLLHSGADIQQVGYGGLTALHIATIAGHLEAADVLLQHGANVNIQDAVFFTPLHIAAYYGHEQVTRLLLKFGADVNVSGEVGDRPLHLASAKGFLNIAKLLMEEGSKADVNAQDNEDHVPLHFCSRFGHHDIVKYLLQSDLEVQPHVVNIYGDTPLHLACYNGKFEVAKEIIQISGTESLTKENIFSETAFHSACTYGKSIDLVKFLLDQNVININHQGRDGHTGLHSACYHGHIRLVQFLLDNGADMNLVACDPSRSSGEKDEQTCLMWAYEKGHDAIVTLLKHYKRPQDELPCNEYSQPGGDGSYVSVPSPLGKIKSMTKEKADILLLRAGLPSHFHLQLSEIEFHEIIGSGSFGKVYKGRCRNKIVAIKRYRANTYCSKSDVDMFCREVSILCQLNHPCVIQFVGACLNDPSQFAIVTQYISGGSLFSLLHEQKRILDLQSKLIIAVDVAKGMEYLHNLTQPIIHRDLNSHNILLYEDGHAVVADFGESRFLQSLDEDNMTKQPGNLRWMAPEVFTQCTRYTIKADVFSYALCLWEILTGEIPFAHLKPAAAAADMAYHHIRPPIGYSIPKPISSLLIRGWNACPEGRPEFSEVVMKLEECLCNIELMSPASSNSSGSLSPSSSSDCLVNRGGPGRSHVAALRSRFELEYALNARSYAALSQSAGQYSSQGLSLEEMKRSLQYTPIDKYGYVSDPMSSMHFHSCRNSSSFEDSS

TSSK3 = target: T21, TSSK3 (Homo sapiens, UniProt Q96PN8); assay: KINOMEscan; format: binding; conditions: 1 μM
T21 construct: purchased Eurofins DiscoverX Corporation
T21 sequence (Q96PN8 whole entry): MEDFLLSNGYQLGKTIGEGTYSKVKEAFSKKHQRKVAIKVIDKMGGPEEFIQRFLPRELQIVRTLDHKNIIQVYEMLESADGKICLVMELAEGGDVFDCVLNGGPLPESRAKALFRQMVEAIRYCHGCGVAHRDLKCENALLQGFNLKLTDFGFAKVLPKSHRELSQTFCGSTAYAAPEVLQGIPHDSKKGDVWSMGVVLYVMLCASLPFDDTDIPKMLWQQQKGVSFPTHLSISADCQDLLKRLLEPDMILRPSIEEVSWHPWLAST

TTK = TTK (Homo sapiens, UniProt P33981); assay: KINOMEscan; format: binding; conditions: 1 μM
VRK2 = VRK2 (Homo sapiens, UniProt Q86Y07); assay: KINOMEscan; format: binding; conditions: 1 μM
Chain of VRK2 (Q86Y07 whole entry): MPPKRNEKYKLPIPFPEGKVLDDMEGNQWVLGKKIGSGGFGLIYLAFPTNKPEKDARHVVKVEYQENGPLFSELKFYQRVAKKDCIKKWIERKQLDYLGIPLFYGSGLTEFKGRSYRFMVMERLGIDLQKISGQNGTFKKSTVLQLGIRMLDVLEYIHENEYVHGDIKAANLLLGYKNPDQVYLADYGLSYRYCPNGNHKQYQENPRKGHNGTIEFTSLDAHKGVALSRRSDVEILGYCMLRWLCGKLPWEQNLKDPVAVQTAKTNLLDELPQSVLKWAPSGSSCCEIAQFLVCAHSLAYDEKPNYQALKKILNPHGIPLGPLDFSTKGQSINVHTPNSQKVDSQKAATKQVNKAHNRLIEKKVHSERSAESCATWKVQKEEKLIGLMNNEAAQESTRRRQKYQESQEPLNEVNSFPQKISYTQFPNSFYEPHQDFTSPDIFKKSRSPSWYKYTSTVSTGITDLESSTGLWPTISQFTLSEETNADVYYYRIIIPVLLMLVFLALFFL

Linking coefficient E ([1]; ATP fragment 5, allosteric fragment 10): < 1.0 M⁻¹
Linking coefficient E ([1]; ATP fragment 6, allosteric fragment 10): < 0. 59 M-1
activity ([1]; [Inhibitor] 1.3e-5 nM): 83.4% and 90.2% and 86.8%
activity ([1]; [Inhibitor] 3.18e-5 nM): 73.8% and 73.1% and 84.5%
activity ([1]; [Inhibitor] 7.78e-5 nM): 40.1% and 41.4% and 42.9%
activity ([1]; [Inhibitor] 0.000190441 nM, 190.4 fM): 19.1% and 19.2%
activity ([1]; [Inhibitor] 0.000465979 nM, 466 fM): 8.04% and 10%
activity ([1]; [Inhibitor] 0.00114018 nM, 1.14 pM): 5.9% and 5.75%
activity ([1]; [Inhibitor] 0.00278983 nM, 2.79 pM): 3.92% and 5.27%
activity ([1]; [Inhibitor] 0.00682626 nM, 6.826 pM): 3.83% and 4.05%
activity ([1]; [Inhibitor] 0.0167028 nM, 16.7 pM): 2.18% and 2.36%
IC50 ([1]; Table S1, read-out: IC50, LRTM): 0.051 to 0.064 nM and 0.051 to 0.059 nM
IC50 ([1]; enzyme 0.02 nM, ATP 100 µM, read-out: Biochemical EGFR IC50, LRTM): 0.059 ± 0.005 nM
linking coefficients ([1]; limits estimated from LRTM IC50 values): 0.5 to 1.0 M⁻¹
Structure (SMILES): CSc1nc(-c2cccc(NC(=O)c3cccc4c3NC(=O)c3ccccc3N4)c2)c(-c2ccnc(NC(C)=O)c2)[nH]1 [Compound 2]

Structure (SMILES): C=CC(=O)Nc1ccc(OC)c(Nc2cc(-c3[nH]c(CC)nc3-c3cccc(NC(=O)c4cccc5c4NC(=O)c4ccccc4N5)c3)ccn2)c1 [Compound 4]
POC [2]: 85% of control
POC (ACVR1): 96% of control
POC (ACVRL1): 75% of control
POC (BRSK1): 100% of control
POC (CAMK1B): 94% of control
POC (EGFR(L861Q)): 2.7% of control
POC (EPHA7): 100% of control
POC (ERK4): 100% of control
POC (FGFR3): 94% of control
POC (FRK): 20% of control
POC (HPK1): 45% of control
POC (JNK1): 85% of control
POC (KIT-autoinhibited): 100% of control
POC (LKB1): 100% of control
POC (MAP3K15): 74% of control
POC (MERTK): 83% of control
POC (MLCK): 86% of control
POC (MLK1): 86% of control
POC (MLK3): 97% of control
POC (MRCKB): 1.7% of control
POC (NEK6): 100% of control
POC (p38-delta): 100% of control
POC (PIK3C2G): 50% of control
POC (PIKFYVE): 94% of control
POC (PRKD1): 42% of control
POC [3]: 100% of control
POC [4]: 100% of control
POC (SGK2): 83% of control
POC (SNRK): 82% of control
POC (SRC): 73% of control
POC (SYK): 63% of control
POC (TAOK1): 100% of control
POC (TGFBR1): 75% of control
POC (TNNI3K): 89% of control
POC (TSSK3): 100% of control
POC (TTK): 72% of control
POC (VRK2): 100% of control
